Experimental findings from ChEMBL document CHEMBL4483862, “Open-source discovery of chemical leads for next-generation chemoprotective antimalarials” (2018) are described below.

In this assay the test system is Plasmodium berghei. In words: Luciferase/luciferin-expressing antifolate-resistant parasites were used to infect a culture of HepG2 cells that were pre-incubated with compounds. Infected hepatocytes emit light due to the luciferase reaction. Assay results are presented as the percent inhibition of light emission compared to control. […]. It counts as functional. The note with it: sporozoite; for IC90: read-out: LUCIFERASE INFECTION ASSAY - IC90.

Where [1] appears, read: read-out: LUCIFERASE INFECTION ASSAY - IC50.

In the case of `O=C(Nc1ccc(-c2nc(-c3ccc(O)c(O)c3)cs2)cc1)c1cccs1`, the IC90 is > 10 µM. Moreover, the IC50 under setting [1] is > 10 µM.
Turning to `N#C/C(=C\Nc1cc(C(F)(F)F)cc(C(F)(F)F)c1)S(=O)(=O)c1ccccc1Cl`, the IC90 is > 7.26 µM. Moreover, where the note is “FFLUC_HILL_SLOPE 5.48, FFLUC_R_SQUARED 0.621, HEPG2TOX_HILL_SLOPE 2.18, HEPG2TOX_R_SQUARED 0.937, read-out: LUCIFERASE INFECTION ASSAY - IC50”, the IC50 was > 7.26 µM.
As for `CCOc1ccccc1NC(=O)/C=C/c1nnc2c3ccccc3cnn12`, the concentration for an effect of 90% (IC90) is > 10 µM. In addition, the half-maximal inhibitory concentration (IC50) (HEPG2TOX_HILL_SLOPE 0.359, HEPG2TOX_R_SQUARED 0.214, PBLUC_HILL_SLOPE 0.79, PBLUC_R_SQUARED 0.499, read-out: LUCIFERASE INFECTION ASSAY - IC50) was 1.82 µM.
`Cn1c(Nc2ccccc2)nc2cnc(-c3ccc(F)c(Cl)c3)cc21`: the IC90 is > 10 µM. Moreover, the 50% inhibitory concentration (IC50) (PBLUC_HILL_SLOPE 3.09, PBLUC_R_SQUARED 0.397, read-out: LUCIFERASE INFECTION ASSAY - IC50) was 7.42 µM.
Consider `CCN(CC)S(=O)(=O)c1ccc(C)c(NC(=O)CN(Cc2c(F)cccc2Cl)C2CC2)c1`, for which the concentration for an effect of 90% (IC90) is > 10 µM. In addition, the IC50 under setting [1] is > 10 µM.
`CC1CCN(C(=O)COc2ccc(C(C)C)cc2Br)CC1`: the IC90 was found to be 8.51 µM. Further, the IC50 (HEPG2TOX_HILL_SLOPE 9.85, HEPG2TOX_R_SQUARED 0.75, PBLUC_HILL_SLOPE 15.1, PBLUC_R_SQUARED 0.202, read-out: LUCIFERASE INFECTION ASSAY - IC50) turned out to be 7.36 µM.
Take `O=c1c(Cl)c(Cl)cnn1-c1ccccc1`: the concentration for an effect of 90% (IC90) is > 13.7 µM. Besides, the 50% inhibitory concentration (IC50) (HEPG2TOX_HILL_SLOPE 16.5, HEPG2TOX_R_SQUARED 0.386, read-out: LUCIFERASE INFECTION ASSAY - IC50) was > 13.7 µM.
Consider `O=c1c(Cl)c(Cl)cnn1Cc1nc2cc(Cl)ccc2n1Cc1ccccc1`, for which the concentration for an effect of 90% (IC90) was > 10 µM. In addition, the IC50 (FFLUC_HILL_SLOPE 21.9, FFLUC_R_SQUARED 0.587, HEPG2TOX_HILL_SLOPE 12.6, HEPG2TOX_R_SQUARED 0.77, read-out: LUCIFERASE INFECTION ASSAY - IC50) was > 10 µM.
On to `Cc1cc(C)n(CCCNC(=O)Cc2c(C)nc3ncnn3c2C)n1`, for which the IC90 was > 10 µM. Further, under setting [1], the IC50 is > 10 µM.
Regarding `Cc1ccc(C(=O)Nc2nc3ccccn3c2C(=O)NC2CCCCC2)cc1`, the IC90 worked out at 1.16 µM. Further, the half-inhibitory concentration (IC50) (HEPG2TOX_HILL_SLOPE 2.97, HEPG2TOX_R_SQUARED 0.276, PBLUC_HILL_SLOPE 14.7, PBLUC_R_SQUARED 0.56, read-out: LUCIFERASE INFECTION ASSAY - IC50) turned out to be 1 µM.
As for `CN(Cc1nccn1C(F)F)c1ncnc2sccc12`, the 90% effect concentration (IC90) was > 10 µM. Moreover, the half-maximal inhibitory concentration (IC50) under setting [1] is > 10 µM.
As to `Cc1cc(N2CCN(C)CC2)n2ncc(-c3ccccc3Cl)c2n1`, the IC90 was > 9.65 µM. For the same molecule, the IC50 (PBLUC_HILL_SLOPE 0.809, PBLUC_R_SQUARED 0.766, read-out: LUCIFERASE INFECTION ASSAY - IC50) turned out to be 1.46 µM.
`COc1ccc(CCn2nc(C(=O)NC3CC3)c3c2CCN(C(=O)c2cc4cc(C)ccc4[nH]2)C3)cc1`: the IC90 was > 6.63 µM. Further, the 50% inhibitory concentration (IC50) (FFLUC_HILL_SLOPE 11.9, FFLUC_R_SQUARED 0.277, PBLUC_HILL_SLOPE 2.4, PBLUC_R_SQUARED 0.763, read-out: LUCIFERASE INFECTION ASSAY - IC50) is 2.8 µM.
Regarding `O=C(NC1CC1)c1ccc(CN(Cc2ccco2)Cc2nc(-c3ccc(F)cc3)no2)cc1`, the IC90 worked out at 0.482 µM. Moreover, the IC50 (PBLUC_HILL_SLOPE 9.42, PBLUC_R_SQUARED 0.908, read-out: LUCIFERASE INFECTION ASSAY - IC50) is 0.382 µM.
For the molecule `COc1cc(/C=N/NC(=O)c2ccccc2NS(=O)(=O)c2cccs2)ccc1OCCC(C)C`, the 90% effect concentration (IC90) was found to be 1.06 µM. Besides, the IC50 (PBLUC_HILL_SLOPE 1.78, PBLUC_R_SQUARED 0.852, read-out: LUCIFERASE INFECTION ASSAY - IC50) is 0.307 µM.
Regarding `COC(=O)c1cc(C#N)c(Sc2ncc([N+](=O)[O-])s2)nc1C(OC)OC`, the 90% effect concentration (IC90) is > 8.32 µM. Also, the IC50 (FFLUC_HILL_SLOPE 0.469, FFLUC_R_SQUARED 0.297, HEPG2TOX_HILL_SLOPE 12.3, HEPG2TOX_R_SQUARED 0.829, PBLUC_HILL_SLOPE 2.84, PBLUC_R_SQUARED 0.141, read-out: LUCIFERASE INFECTION ASSAY - IC50) was > 8.32 µM.
For `COc1ccc(NCC2(c3ccnc(-c4ccccc4Cl)c3)CC2)cc1`, the IC90 stood at 8.59 µM. Further, the IC50 (HEPG2TOX_HILL_SLOPE 7.95, HEPG2TOX_R_SQUARED 0.722, PBLUC_HILL_SLOPE 6.14, PBLUC_R_SQUARED 0.58, read-out: LUCIFERASE INFECTION ASSAY - IC50) turned out to be 6.01 µM.
On to `COc1cccc(CN2CCN3C(C(=O)Nc4cccc(OC(F)(F)F)c4)=COC3=NC2=O)c1`, for which the concentration for an effect of 90% (IC90) was > 10 µM. Where the note is “HEPG2TOX_HILL_SLOPE 0.751, HEPG2TOX_R_SQUARED 0.867, PBLUC_HILL_SLOPE 2.96, PBLUC_R_SQUARED 0.388, read-out: LUCIFERASE INFECTION ASSAY - IC50”, the IC50 amounted to 6.84 µM.
Regarding `COc1ccc([N+](=O)[O-])cc1NC(=O)COC(=O)CSCc1c(C)noc1C`, the 90% effect concentration (IC90) is > 10 µM. For the same molecule, the concentration for half-maximal inhibition (IC50) under setting [1] is > 10 µM.
With `O=C(Nc1ccccc1)c1ccc(CN2CCCC(C(F)(F)F)C2)cc1` (stereo not given), the concentration for an effect of 90% (IC90) was 8.25 µM. The concentration for half-maximal inhibition (IC50) under setting [1] stood at 2.2 µM.
With `O=c1c2c(-c3ccccc3)csc2nc2n1CC/C2=C\c1cccc(C(F)(F)F)c1`, the 90% effect concentration (IC90) was > 10 µM. For the same molecule, where the note is “FFLUC_HILL_SLOPE 50.3, FFLUC_R_SQUARED 0.583, read-out: LUCIFERASE INFECTION ASSAY - IC50”, the concentration for half-maximal inhibition (IC50) was > 10 µM.
Turning to `CCc1ccc(C(=O)Nc2nc3ccc(C)cn3c2C(=O)NC(C)CC)cc1` (stereo not given), the IC90 stood at 3.2 µM. For the same molecule, the IC50 (HEPG2TOX_HILL_SLOPE 7.71, HEPG2TOX_R_SQUARED 0.568, PBLUC_HILL_SLOPE 11.7, PBLUC_R_SQUARED 0.544, read-out: LUCIFERASE INFECTION ASSAY - IC50) turned out to be 2.65 µM.
As for `Cn1nc(C(C)(C)C)cc1NC(=O)Cc1ccc(-c2ccccc2)cc1`, the IC90 was > 10 µM. For the setting “HEPG2TOX_HILL_SLOPE 0.763, HEPG2TOX_R_SQUARED 0.965, PBLUC_HILL_SLOPE 1.31, PBLUC_R_SQUARED 0.513, read-out: LUCIFERASE INFECTION ASSAY - IC50”, the IC50 was determined as 2.95 µM.
For `CC1=C(C#N)C(/C=N/N(C)c2ncc(C(F)(F)F)cc2Cl)CC(=O)N1` (stereo not given), the IC90 worked out at 3.84 µM. For the same molecule, the half-maximal inhibitory concentration (IC50) (HEPG2TOX_HILL_SLOPE 2.47, HEPG2TOX_R_SQUARED 0.965, PBLUC_HILL_SLOPE 13.6, PBLUC_R_SQUARED 0.0536, read-out: LUCIFERASE INFECTION ASSAY - IC50) is 3.27 µM.
Consider `COc1ccc(-c2csc(CC(=O)NCc3ccccc3)n2)c(OC)c1`, for which the IC90 was > 10 µM. The IC50 under setting [1] is > 10 µM.
For `Cc1ccc2[nH]c(-c3ccccc3O)nc2c1`, the IC90 was found to be 1.78 µM. For the same molecule, where the note is “HEPG2TOX_HILL_SLOPE 1.55, HEPG2TOX_R_SQUARED 0.794, PBLUC_HILL_SLOPE 15.6, PBLUC_R_SQUARED 0.425, read-out: LUCIFERASE INFECTION ASSAY - IC50”, the 50% inhibitory concentration (IC50) was 1.54 µM.
For `Cc1ccc(S(=O)(=O)Oc2ccccc2/C=N/N=C2\NC(=O)CS2)cc1Cl`, the IC90 is > 10 µM. The half-maximal inhibitory concentration (IC50) (HEPG2TOX_HILL_SLOPE 8.05, HEPG2TOX_R_SQUARED 0.112, PBLUC_HILL_SLOPE 0.841, PBLUC_R_SQUARED 0.28, read-out: LUCIFERASE INFECTION ASSAY - IC50) is > 10 µM.
Regarding `Cc1cccc(Cn2c(CN3CCCCC3)nc3ccccc32)c1`, the IC90 was 9.84 µM. The IC50 (HEPG2TOX_HILL_SLOPE 11.8, HEPG2TOX_R_SQUARED 0.182, PBLUC_HILL_SLOPE 4.42, PBLUC_R_SQUARED 0.595, read-out: LUCIFERASE INFECTION ASSAY - IC50) came to 5.99 µM.
With `COc1ccccc1CNc1ncnc2scc(-c3ccccc3)c12`, the IC90 was > 10 µM. Also, the 50% inhibitory concentration (IC50) (PBLUC_HILL_SLOPE 3.56, PBLUC_R_SQUARED 0.13, read-out: LUCIFERASE INFECTION ASSAY - IC50) came out at 5.66 µM.
Regarding `O=C(NCC1CC1)c1cccc(C2(CNCCCN3CCOCC3)CC2)c1`, the 90% effect concentration (IC90) is > 10 µM. The IC50 under setting [1] was > 10 µM.
For the molecule `CCOC(=O)c1cnc(-c2ccccn2)nc1O`, the IC90 is > 13.5 µM. Also, for the setting “HEPG2TOX_HILL_SLOPE 12.4, HEPG2TOX_R_SQUARED 0.686, PBLUC_HILL_SLOPE 4.24, PBLUC_R_SQUARED 0.376, read-out: LUCIFERASE INFECTION ASSAY - IC50”, the 50% inhibitory concentration (IC50) turned out to be 8.76 µM.
Turning to `Oc1cccc2c(NC(S)=Nc3ccc(SC(F)F)cc3)cccc12`, the concentration for an effect of 90% (IC90) was 7.7 µM. Further, the IC50 (FFLUC_HILL_SLOPE 69.3, FFLUC_R_SQUARED 0.272, PBLUC_HILL_SLOPE 39, PBLUC_R_SQUARED 0.0559, read-out: LUCIFERASE INFECTION ASSAY - IC50) is 7.27 µM.
Turning to `Cn1c(-c2ccccc2)nc2cnc(-c3ccc(N)nc3)cc21`, the concentration for an effect of 90% (IC90) was > 10 µM. Further, under “HEPG2TOX_HILL_SLOPE 4.2, HEPG2TOX_R_SQUARED 0.898, PBLUC_HILL_SLOPE 2.04, PBLUC_R_SQUARED 0.316, read-out: LUCIFERASE INFECTION ASSAY - IC50”, the half-inhibitory concentration (IC50) amounted to 5.32 µM.
Consider `NC(=O)c1ccc(Nc2nc(-c3cccnc3)nc3ccccc23)cc1`, for which the concentration for an effect of 90% (IC90) is > 10 µM. For the same molecule, for the setting “PBLUC_HILL_SLOPE 4.21, PBLUC_R_SQUARED 0.0982, read-out: LUCIFERASE INFECTION ASSAY - IC50”, the half-inhibitory concentration (IC50) was > 10 µM.
As to `COc1ccc2nc3cc(Cl)ccc3c(N(C)CCc3ccc(OC)c(OC)c3)c2c1`, the concentration for an effect of 90% (IC90) is 0.33 µM. Also, for the setting “PBLUC_HILL_SLOPE 4.42, PBLUC_R_SQUARED 0.447, read-out: LUCIFERASE INFECTION ASSAY - IC50”, the concentration for half-maximal inhibition (IC50) worked out at 0.201 µM.
